Laboratory results: patent US7419812B2, “Sequences encoding PhzO and methods” (The United States of America as represented by the …, priority 2000, dated 2008)
Several values for one entry are separate records, joined by “and”; a condition that tells them apart may be missing. Equal values may be shown once.

Test: Spontaneous conversion (decarboxylation) of synthetic 2-OH-PCA to 2-OH-PHZ in phosphate buffer, RP-HPLC
Type: physicochemical
Method: Since phenazine-producing Pseudomonas spp. often produce mixtures of phenazine compounds, a generalized HPLC protocol for detection of these metabolites was developed. The protocol utilized a NOVA-PAK C18 reverse-phase Radial-PAK cartridge (4 μm, 8×100 mm) (Waters Corp., Milford, Mass.), and solvent conditions consisting of a 2-min initial wash with 35% ACN/0.1% TFA in H2O followed by a 25-min linear gradient to 100% ACN/0.1% TFA at a flow rate of 1.0 ml/min. The Waters HPLC system included a 710B WISP, 510 pumps, and a 680 automated gradient controller with a 990 photodiode array detector (Waters Corp.). Phenazine compounds were identified by retention time and ultraviolet spectrum. Standards included compounds purified from well-characterized strains (Mavrodi et al, 1998, supra; Pierson and Thomashow, 1992, supra) and chemically-synthesized compounds (PCA, 2-OH-PCA, and 2-OH-PHZ) obtained from Colour Your Enzyme (Bath, Ontario, Canada). […] 2-OHPHZ, which is formed by spontaneous decarboxylation of 2-OH-PCA (see below), was therefore used as an indicator of 2-hydroxyphenazine synthesis and when necessary, the presence of 2-OH-PCA in samples containing PCA was determined by peak purity and spectral analyses using the Waters 991 photodiode array (Waters Corp.).
Expression and Functional Analysis of PhzO. The phzO gene from P. aureofaciens 30-84 was cloned in pUCP26 under the control of the lac promoter and expressed in E. coli JM109. Cells from induced cultures expressing PhzO produced a unique band of approximately 55 kDa on SDS-PAGE gels, in good agreement with the size predicted by nucleotide sequence analysis. Induced cultures of E. coli expressing PhzO converted PCA (0.3 or 0.5 mg/ml in 5% NaHCO3) to 2-OH-PCA and 2-OH-PHZ within 3 h, whereas no such conversion occurred in control cultures harboring only pUCP26 (FIG. 2). […] To determine whether PhzO is responsible for this reaction in P. aureofaciens 30-84, a tetracycline resistance gene was inserted into phzO and introduced in the genome by homologous recombination. […]

O=C(O)c1c(O)ccc2nc3ccccc3nc12 [2-OH-PCA, 2-hydroxyphenazine-1-carboxylic acid]
2-OH-PHZ as share of the total phenazine present (0.1 M sodium phosphate buffer pH 4.0, 18 h): 0.2% | 2-OH-PCA initially present converted to 2-OH-PHZ (0.1 M sodium phosphate buffer pH 6.0, 18 h): 33% and 33.3% | 2-OH-PCA initially present converted to 2-OH-PHZ (0.1 M sodium phosphate buffer pH 8.0, 18 h): 62% and 64%
